Series [1] relates to Respiratory Syncytial Virus (RSV) long strain (ATCC#VR-26). Description: RSV Antiviral Assay (CPE reduction assay). Particulars: human respiratory syncytial virus, 120 h; HEp-2 cells infected with RSV long strain, 5 days, CCK-8 readout; bins (Table 2: less than 1 μM; Table 3: equal to or higher than 1 μM and less than 50 μM); read-out: 50% effective concentration (EC50). In kind it is cell-based. The method, boiled down:
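HEp-2 cells infected with 100 TCID50 RSV long strain per well, compounds from 100 μM or 1 μM in 9-point ⅓ dilutions, duplicates, 1% DMSO. After 5 days at 37 °C, viable cells measured by CCK-8 (A450, 630 nm background); EC50 by regression on mean O.D.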

Series [2] can be described thus: Cytotoxicity Determination. In kind it is cell-based. Conditions: human, HEp-2 cells, without addition of virus, CCK-8 readout, bins (Table 4: greater than 100 μM; Table 5: equal to or less than 100 μM and greater than 10 μM), read-out: 50% cytotoxicity concentration (CC50). The method, boiled down: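 Uninfected cells were exposed to compounds in duplicate over a 7-point ½ dilution series starting at 100 μM final, for 5 days at 37 °C, 5% CO2. CCK-8 was then added for 3-4 h, and CC50 was calculated from optical density.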

SMILES strings stand for the structures. pEC50: −log10 of the molar value.

For `COc1ccc(C(=O)CNC(=O)c2ccc(OCCO)c(C)c2)nc1-c1ccc(F)c(Cl)c1` [Compound 1309], the pEC50 in series [1] is above 6.00. Also, in series [2], the CC50 at 5 days was above 100 µM.
Taken in the same sequence, the figures for `COc1ccc(C(=O)NCC(=O)N/N=C(/CC2CC2)c2csc3ccccc23)cc1OC` [Compound 400-5] were 4.30 to 6.00 and above 100 µM.
For `COc1ccc(C(=O)NCC(=O)N(C)/N=C/c2c(C#N)sc3c(F)cccc23)cc1OCCO` [Compound 2303] the same measures were 4.30 to 6.00 and above 100 µM.
For the compound `COc1cc(C(=O)NCC(=O)c2cccc(-c3csc4c(F)cccc34)n2)ccc1OCCO` [Compound 1209], the pEC50 in series [1] is above 6.00. Besides, the CC50 at 5 days in series [2] fell in the range of 10 to 100 µM.
Taken in the same sequence, the figures for `COc1cc(C(=O)NCC(=O)c2ccc(OC)c(-c3cnn4ccccc34)n2)ccc1OCCO` [Compound 1345] were 4.30 to 6.00 and above 100 µM.
As for `COc1cc(C(=O)NCC(=O)c2cc(C)c(OC)c(-c3csc4c(F)cccc34)n2)ccc1OCCO` [Compound 2103], the pEC50 in series [1] was above 6.00. The CC50 at 5 days in series [2] fell in the range of 10 to 100 µM.
For the compound `COc1ccc(C(=O)NCC(=O)c2ccc(OC)c(-c3cnoc3)n2)cc1OC` [Compound 1510], the pEC50 in series [1] is 4.30 to 6.00. For the same compound, the CC50 at 5 days in series [2] fell in the range of 10 to 100 µM.
For `COc1ccc(C(=O)NCC(=O)c2ccc(OC)c(-c3ccc(F)c(Cl)c3)n2)cc1OC` [Compound 1529] the same measures were above 6.00 and above 100 µM.
Taken in the same sequence, the figures for `COc1ccc(C(=O)NCC(=O)N/N=C2\CCCc3sccc32)cc1OC` [Compound 436] were 4.30 to 6.00 and above 100 µM.
Taken in the same sequence, the figures for `COc1ccc(C(=O)NCC(=O)N/N=C(\C)c2csc3c(Cl)cccc23)cc1OC` [Compound 400-11] were 4.30 to 6.00 and 10 to 100 µM.
As to `COc1ccc(C(=O)NCC(=O)N2CCCC(c3csc4c(F)cccc34)=N2)cc1OC` [Compound 3501], the pEC50 in series [1] is above 6.00. For the same compound, the CC50 at 5 days in series [2] is 10 to 100 µM.
For `COc1cc(C(=O)NCC(=O)c2ccc(OC)c(-c3csc4c(F)cccc34)n2)ccc1OCCF` [Compound 2625] the same measures were above 6.00 and above 100 µM.
For `COc1ccc(C(=O)NCC(=O)N/N=C(\C)c2csc3ccc(O)cc23)cc1OC` [Compound 400-8] the same measures were 4.30 to 6.00 and 10 to 100 µM.
Taken in the same sequence, the figures for `CCc1cc(C(=O)CNC(=O)c2ccc(OCCO)c(OC)c2)nc(-c2csc3c(F)cccc23)c1OC` [Compound 2104] were above 6.00 and 10 to 100 µM.
`COCC/C(=N\NC(=O)CNC(=O)c1ccc(OCCO)c(OC)c1)c1csc2c(F)cccc12` [Compound 603A]: the pEC50 in series [1] was above 6.00. Also, the CC50 at 5 days in series [2] is above 100 µM.
For `CCc1cc(C(=O)CNC(=O)c2ccc(OCCO)c(OC)c2)nc(-c2coc3c(F)cccc23)c1` [Compound 2111], the pEC50 in series [1] was above 6.00. In addition, the CC50 at 5 days in series [2] was above 100 µM.
For `COc1ccc(C(=O)N2CCCC2C(=O)c2ccc(OC)c(-c3csc4c(F)cccc34)n2)cc1OC` (stereo not shown) [Compound 1822] the same measures were 4.30 to 6.00 and 10 to 100 µM.
For `COc1ccc(C(=O)NCC(=O)N2CCCC(c3ccc(F)c4sccc34)=N2)cc1OC` [Compound 3500] the same measures were above 6.00 and above 100 µM.
For `COc1ccc(C(=O)CNC(=O)c2ccncn2)nc1-c1ccc(F)c(Cl)c1` [Compound 4205] the same measures were 4.30 to 6.00 and above 100 µM.
Take `COc1ccc(C(=O)NCC(=O)N/N=C2\CCCc3[nH]c4ccccc4c32)cc1OC` [Compound 414]: the pEC50 in series [1] is 4.30 to 6.00. For the same compound, the CC50 at 5 days in series [2] fell in the range of 10 to 100 µM.
Consider `CCCc1cc(C(=O)CNC(=O)c2ccc(OC)c(OC)c2)nc(-c2csc3c(F)cccc23)c1` [Compound 1244], for which the pEC50 in series [1] was above 6.00. In addition, the CC50 at 5 days in series [2] is 10 to 100 µM.
For `COc1ccc2scc(/C(C)=N/NC(=O)CNC(=O)c3ccc(OC)c(OC)c3)c2c1` [Compound 400-9] the same measures were 4.30 to 6.00 and 10 to 100 µM.
In the case of `CNC(=O)COc1ccc(C(=O)NCC(=O)c2ccc(OC)c(-c3ccc(F)c(Cl)c3)n2)cc1OC` [Compound 1321], in series [1], the pEC50 was 4.30 to 6.00. Moreover, the CC50 at 5 days in series [2] lay in the range of 10 to 100 µM.
Take `COc1ccc(C(=O)NC(C)C(=O)c2ccc(OC)c(-c3csc4c(F)cccc34)n2)cc1OC` (stereo not shown) [Compound 1824]: in series [1], the pEC50 is above 6.00. Further, the CC50 at 5 days in series [2] was above 100 µM.
For `CCOc1cc(-c2nc(C(=O)CNC(=O)c3ccc(OC)c(OC)c3)ccc2OC)cc2ccccc12` [Compound 1509] the same measures were 4.30 to 6.00 and above 100 µM.
Taken in the same sequence, the figures for `COc1cc(C(=O)CNC(=O)c2ccc(OC)c(OC)c2)nc(-c2ccc3[nH]nnc3c2)c1` [Compound 1403] were 4.30 to 6.00 and above 100 µM.
For `CNCCOc1ccc(C(=O)NCC(=O)c2ccc(OC)c(-c3ccc(F)c(Cl)c3)n2)cc1OC` [Compound 1313] the same measures were 4.30 to 6.00 and 10 to 100 µM.
For the compound `COc1cc(C(=O)NCC(=O)c2ccc(OC)c(-c3ccc(F)cc3)n2)ccc1OCCO` [Compound 1608], in series [1], the pEC50 is above 6.00. The CC50 at 5 days in series [2] was 10 to 100 µM.
For `COc1ccc(C(=O)NCC(=O)N/N=C(\CC#N)c2csc3ccccc23)cc1OC` [Compound 456] the same measures were 4.30 to 6.00 and above 100 µM.
For `CCCN(/N=C/c1csc2c(F)cccc12)C(=O)CNC(=O)c1ccc(OCCO)c(OC)c1` [Compound 2302] the same measures were above 6.00 and 10 to 100 µM.
For the compound `COc1ccc(C(=O)NCC(=O)N/N=C(\C)c2cc(C)sc2C)cc1OC` [Compound 438], the pEC50 in series [1] is 4.30 to 6.00. Besides, the CC50 at 5 days in series [2] was above 100 µM.
For `COc1ccc(C(=O)NC(CCC(=O)O)C(=O)c2ccc(OC)c(-c3csc4c(F)cccc34)n2)cc1OC` (stereo not shown) [Compound 1821] the same measures were above 6.00 and 10 to 100 µM.
For `COc1cc(C(=O)NCC(=O)c2ccc(OC)c(-c3ccncc3)n2)ccc1OCCO` [Compound 1619] the same measures were 4.30 to 6.00 and above 100 µM.
For `COc1cc(C(=O)NCC(=O)N/N=C(\CC2CCCCC2)c2csc3c(F)cccc23)ccc1OCCO` [Compound 605] the same measures were above 6.00 and 10 to 100 µM.
Take `COc1cc(C(=O)CNC(=O)c2ccc(OCCO)c(OC)c2)nc(-c2csc3c(F)cccc23)c1` [Compound 1213]: the pEC50 in series [1] is above 6.00. Also, the CC50 at 5 days in series [2] was above 100 µM.
Regarding `COc1cc(C(=O)NCC(=O)c2cccc(-c3csc4c(F)cccc34)n2)ccc1OCC(=O)O` [Compound 1248], the pEC50 in series [1] is 4.30 to 6.00. In addition, the CC50 at 5 days in series [2] lay within 10 to 100 µM.
For `COc1cc(C(=O)NCC(=O)c2ccc(OC(F)(F)F)c(-c3csc4c(F)cccc34)n2)ccc1OCCO` [Compound 2107] the same measures were 4.30 to 6.00 and 10 to 100 µM.
For `COc1cc(C(=O)CNC(=O)c2ccc(OC)c(OC)c2)nc(-c2ccc(-c3c[nH]nn3)cc2)c1` [Compound 1405] the same measures were 4.30 to 6.00 and 10 to 100 µM.
Taken in the same sequence, the figures for `CCN(/N=C/c1csc2c(F)cccc12)C(=O)CNC(=O)c1ccc(OCCO)c(OC)c1` [Compound 2301] were above 6.00 and above 100 µM.
Consider `COc1ccc(C(=O)NCC(=O)N/N=C(\CF)c2csc3ccccc23)cc1OC` [Compound 444], for which the pEC50 in series [1] is 4.30 to 6.00. In addition, the CC50 at 5 days in series [2] is above 100 µM.
For `COc1ccc(C(=O)NCC(=O)c2cccc(-n3ncc4c(F)cccc43)n2)cc1OC` [Compound 2601] the same measures were 4.30 to 6.00 and above 100 µM.
For `COc1ccc(C(=O)NCC(=O)N/N=C(\C#N)c2ccccc2)cc1OC` [Compound 454] the same measures were 4.30 to 6.00 and above 100 µM.
`COCc1ccc(C(=O)NCC(=O)N/N=C(\C)c2csc3ccccc23)cc1OC` [Compound 400-6]: the pEC50 in series [1] is 4.30 to 6.00. In addition, the CC50 at 5 days in series [2] was above 100 µM.
Taken in the same sequence, the figures for `COc1ccc(C(=O)NCC(=O)N/N=C(\C)c2coc3ccccc23)cc1OC` [Compound 439] were 4.30 to 6.00 and above 100 µM.
Taken in the same sequence, the figures for `COc1ccc(C(=O)NCC(=O)N/N=C(\CCC(C)C)c2csc3ccccc23)cc1OC` [Compound 455A] were above 6.00 and above 100 µM.
For `COc1ccc(C(=O)NCC(=O)N/N=C(\C)c2noc3ccccc23)cc1OC` [Compound 491] the same measures were 4.30 to 6.00 and above 100 µM.
Consider `COc1cc(C(=O)N[C@H](CCCCN)C(=O)c2ccc(OC)c(-c3csc4c(F)cccc34)n2)ccc1OCCO` [Compound 1836], for which, in series [1], the pEC50 was 4.30 to 6.00. The CC50 at 5 days in series [2] lay in the range of 10 to 100 µM.
Consider `COc1cc(C(=O)NCC(=O)c2cccc(-c3csc4c(F)cccc34)n2)ccc1OC1CNC1` [Compound 1251], for which, in series [1], the pEC50 is 4.30 to 6.00. The CC50 at 5 days in series [2] was above 100 µM.
Take `COc1cc(C(=O)NCC(=O)N/N=C(\C)c2csc3ccccc23)ccc1O` [Compound 478]: the pEC50 in series [1] is 4.30 to 6.00. For the same compound, the CC50 at 5 days in series [2] lay within 10 to 100 µM.
Taken in the same sequence, the figures for `COc1ccc(C(=O)N(C)N(C)C(=O)c2cccc(-c3csc4c(F)cccc34)n2)cc1OC` [Compound 3103] were 4.30 to 6.00 and 10 to 100 µM.
